Data set [1] relates to tail suspended mice. The data set can be described thus: Tail suspension test in mice. Type of data set: in vivo, Male ICR mice. Conditions: 30 min before test, last 4 min of 6 min. From the text:
Male ICR mice (SPF grade) weighing 18-22 g each was suspended by […] separately at 1 cm from the end of the tail with a clamp attached to a rope at the center of top plate of a 25×25×25 cm tail suspension box, and the head is away from the box bottom by 4-5 cm. […] The results of antidepressant effects of the target compounds administrated via intraperitoneal injection as determined by the tail suspension test in mice are given in Table 1. In the tail-suspended model of mice, the antidepressant effect was evaluated by observing the immobility time of the tail-suspended mice, and the shorter the immobility time, the stronger the antidepressant effect.

For a further data set, the system named is forced swim mice. The data set can be described thus: Forced swim test in mice. Conditions: for Immobility time: last 4 min of 6 min. Type of data set: in vivo, ICR mice. The protocol:
Mail ICR mice (SPF grade) weighing 18-22 g were placed in a glass jar (diameter 10 cm, and height 20 cm) with water 10 cm in depth and a temperature of 25° C., observed for 6 min, and the accumulated immobility time of mice (i.e., the time that the animal has no motion or a slight motion in its hind limbs, but maintains body floated without motion) during the last 4 min was recorded. The mice were administrated with the compound to be tested and Duloxetine as the positive control drug via intraperitoneal injection at 30 min before the test or via intragastric administration at 60 min before the test.
In the forced swim model of mice, the antidepressant effect was evaluated to by observing the immobility time of the forced swim mice, and the shorter the immobility time, the stronger the antidepressant effect.

For data set [2], the system named is tail suspended mice. Nature of the data set: Tail suspension test in mice. Type of data set: in vivo, Male ICR mice. Conditions: for Immobility time: last 4 min of 6 min.
[3] abbreviates: 2.5 mg/kg i.p., 30 min before test.
[4] abbreviates: 5 mg/kg i.p., 30 min before test.
Where [5] appears, read: 10 mg/kg i.p., 30 min before test.
Where [6] appears, read: 20 mg/kg i.p., 30 min before test.
Where [7] appears, read: 5 mg/kg i.g., 60 min before test.
[8] abbreviates: 10 mg/kg i.g., 60 min before test.
The mark [9] stands for this setting: 20 mg/kg i.g., 60 min before test.

The melting point is the temperature of the solid-liquid transition. Consider `CN(C)CCC(Oc1cccc2c1OCCO2)c1ccco1.O=C(O)C(=O)O` (stereo not shown), for which the melting point was in the range of 101 to 103 °C.

Turning to `O=C(O)C(=O)O.c1csc(C(CCN2CCCC2)Oc2cccc3c2OCO3)c1` (stereo not shown), the melting point fell in the range of 105 to 108 °C.

Consider `O=C(O)C(=O)O.c1csc(C(CCN2CCCCC2)Oc2cccc3c2OCO3)c1` (stereo not shown), for which the melting point is 118 to 120 °C.

`CN(C)CCC(Oc1cccc2c1OCCO2)c1cccs1.O=C(O)C(=O)O` (stereo not shown) registered a melting point of 89 to 92 °C.

`CNCCC(Oc1cccc2c1OCCO2)c1cccs1.O=C(O)C(=O)O` (stereo not shown): the melting point lay in the range of 128 to 131 °C.

The compound `CN(C)CCC(Oc1cccc2c1OCO2)c1cccs1.O=C(O)C(=O)O` (stereo not shown) [Compound I1, N,N-dimethyl-3-[(benzo[1,3]dioxolan-4-yl)-oxy]-3-(thiophen-2-yl)-propylamine.oxalate] had a melting point of 85 to 88 °C. In the data set with tail suspended mice [1] (2.5 mg/kg i.p.), this compound had an Immobility time of 38.2 ± 32.5 s. This compound returned an Immobility time in the data set on tail suspended mice [1] (5 mg/kg i.p.) of 20.2 ± 17.1 s. The compound further showed an Immobility time with tail suspended mice [1] (10 mg/kg i.p.) of 6.2 ± 7.4 s. For the same compound, in the data set with tail suspended mice [1] (20 mg/kg i.p.), the Immobility time was 2.0 ± 6.3 s. The compound further showed an Immobility time in the data set with forced swim mice (setting [3]) of 148.7 ± 40.3 s. In the data set with forced swim mice (setting [4]), this compound registered an Immobility time of 86.7 ± 44.7 s. Moreover, the Immobility time in the data set with forced swim mice (setting [5]) was determined as 54.6 ± 44.0 s. This compound also yielded an Immobility time in the data set with forced swim mice (setting [6]) of 18.6 ± 15.7 s.

`CNCCC(Oc1cccc2c1OCO2)c1cccs1.O=C(O)C(=O)O` (stereo not shown) [Compound I2] returned a melting point of 120 to 123 °C. This compound yielded an Immobility time in the data set with tail suspended mice [1] (2.5 mg/kg i.p.) of 35.0 ± 30.0 s. The Immobility time in the data set on tail suspended mice [1] (5 mg/kg i.p.) was 20.8 ± 32.1 s. Moreover, the Immobility time with tail suspended mice [1] (10 mg/kg i.p.) is listed as 1.9 ± 4.0 s. In the data set on tail suspended mice [1] (20 mg/kg i.p.), this compound came in with an Immobility time of 2.5 ± 4.1 s. Moreover, the Immobility time with forced swim mice (setting [3]) is 113.6 ± 47.4 s. Also, the Immobility time in the data set with forced swim mice (setting [7]) amounted to 104.1 ± 39.7 s. In addition, in the data set with forced swim mice (setting [4]), the Immobility time is reported as 119.4 ± 47.0 s. In the data set with forced swim mice (setting [8]), this compound displayed an Immobility time of 83.7 ± 34.2 s. The same compound displayed an Immobility time in the data set with forced swim mice (setting [5]) of 86.1 ± 36.5 s. Also, in the data set with forced swim mice (setting [9]), the Immobility time amounted to 60.1 ± 33.8 s. This compound came in with an Immobility time with forced swim mice (setting [6]) of 43.1 ± 37.1 s. Moreover, the “antidepressant effect compared with Duloxetine (in words)” value with forced swim mice (i.g., I2 20 mg/kg vs Duloxetine 40 mg/kg) is “comparable to that of Duloxetine at the dose of 40 mg/kg”. The “effect on immobility time (in words)” value with forced swim mice (intragastric administration, Table 4) is reported as “significantly shorten the immobility time”. Further, in the data set on tail suspended mice [2] (setting [7]), the Immobility time came out at 66.1 ± 44.9 s. The Immobility time in the data set with tail suspended mice [2] (setting [8]) turned out to be 51.8 ± 36.0 s. Also, the Immobility time in the data set on tail suspended mice [2] (setting [9]) was determined as 22.0 ± 16.9 s. Also, the “effect compared with duloxetine (in words)” value in the data set on tail suspended mice [2] (i.g., I2 5 mg/kg vs duloxetine 10 mg/kg) is given as “remarkably greater than that of duloxetine at the dose of 10 mg/kg”. Moreover, the “effect on immobility time (in words)” value in the data set with tail suspended mice [2] (intragastric administration, Table 2) is “significantly shorten the immobility time”.

`CN(C)CCC(Oc1cccc2c1OCO2)c1ccco1.O=C(O)C(=O)O` (stereo not shown) [Compound I6, N,N-dimethyl-[3-(benzo[1,3]dioxolan-4-yl-oxy)-3-(furan-2-yl)]-propylamine.oxalate]: the melting point is 97 to 101 °C. Besides, in the data set on tail suspended mice [1] (2.5 mg/kg i.p.), the Immobility time stood at 51.2 ± 34.3 s. Besides, the Immobility time in the data set with tail suspended mice [1] (5 mg/kg i.p.) came out at 53.9 ± 46.9 s. For the same compound, the Immobility time in the data set with tail suspended mice [1] (10 mg/kg i.p.) is given as 22.5 ± 28.1 s. The compound also had an Immobility time in the data set on tail suspended mice [1] (20 mg/kg i.p.) of 11.9 ± 16.8 s. Besides, in the data set on forced swim mice (setting [3]), the Immobility time came out at 92.4 ± 39.2 s. This compound also returned an Immobility time in the data set on forced swim mice (setting [4]) of 96.5 ± 43.3 s. For the same compound, the Immobility time in the data set with forced swim mice (setting [5]) came to 108.2 ± 46.7 s. This compound showed an Immobility time in the data set on forced swim mice (setting [6]) of 61.2 ± 44.5 s.

The compound `CNCCC(Oc1cccc2c1OCO2)c1ccco1.O=C(O)C(=O)O` (stereo not shown) [Compound I7, N-methyl-[3-(benzo[1,3]dioxolan-4-yl-oxy)-3-(furan-2-yl)]propylamine.oxalate] gave a melting point of 130 to 133 °C. The compound also yielded an Immobility time with tail suspended mice [1] (2.5 mg/kg i.p.) of 30.7 ± 44.1 s. For the same compound, the Immobility time in the data set on tail suspended mice [1] (5 mg/kg i.p.) amounted to 21.9 ± 21.5 s. The same compound yielded an Immobility time with tail suspended mice [1] (10 mg/kg i.p.) of 33.3 ± 31.2 s. The Immobility time in the data set on tail suspended mice [1] (20 mg/kg i.p.) is 0.3 ± 0.95 s. For the same compound, in the data set with forced swim mice (setting [3]), the Immobility time is reported as 94.3 ± 55.3 s. This compound also yielded an Immobility time in the data set with forced swim mice (setting [4]) of 78.9 ± 43.1 s. Moreover, the Immobility time in the data set on forced swim mice (setting [5]) is listed as 70.9 ± 33.0 s. The same compound registered an Immobility time in the data set with forced swim mice (setting [6]) of 28.4 ± 35.8 s.

Take `CNCC[C@H](Oc1cccc2ccccc12)c1cccs1` [Duloxetine, reference compound]: the Immobility time in the data set with forced swim mice (setting [6]) was 96.7 to 135.4 s; with forced swim mice (40 mg/kg i.g., 60 min before test) it was 60.5 ± 44.1 s; in the data set with tail suspended mice [2] (setting [8]) it was 81.0 ± 44.7 s; in the data set on tail suspended mice [2] (setting [5]) it was 35.9 to 49.2 s.

Source of the values: patent US8318772B2, “Amine compounds and medical uses thereof” (Institute of Pharmacology and Toxicology Academy of …, priority 2008, dated 2012).
